Measured values reported in patent US7056948B2, “Use of odor reducing and cross-adapting agents to reduce animal waste malodors” (Monell Chemical Senses Center, priority 2000, dated 2006).

What was measured:
[1] = cited from earlier work
[2] = Initial olfactory evaluation by judges of swine slurry treated with a single odor-reducing or cross-adapting agent; settings: initial olfactory evaluations by several judges; 1-10% by weight
From the text: We attempted amelioration of odor from swine slurry. Swine slurry is a highly malodorous aqueous mixture of pig feces, urine, body secretions and spent feed. Each concentration was mixed with 1 gm of untreated swine slurry. Untreated swine slurry served as a control.

Row | Substance | reduction in malodor in patients with urinary and fecal incontinence ([1]; 100-200 mg doses, after the first week of treatment) | dosages safely used ([1]; Chernomorsky et al.) | control of malodors in colostomy patients ([1]; oral, 100-200 mg daily) | side effects in colostomy patients ([1]; oral, 100-200 mg daily) | suppression of the stronger malodor notes in swine slurry [2]
1 | chlorophyllin copper complex [CCC] | marked reduction in malodor | up to 800 mg/day | sufficient to control malodors | without undesirable side effects | appeared to suppress the stronger malodor notes
2 | bismuth subgallate [BiG] | – | – | – | – | appeared to suppress the stronger malodor notes
